Literature values, collected in article PMC7434893 (British Journal of Cancer, 2020).

molecular target: tankyrase 1/2; conditions: relative to E7449; cited from earlier work

| Structure (SMILES) | IC50 values for tankyrase inhibition, fold higher than E7449 |
| --- | --- |
| NC(=O)c1cccc2cn(-c3ccc([C@@H]4CCCNC4)cc3)nc12 [niraparib] | 5–20 fold |
| O=C(c1cc(Cc2n[nH]c(=O)c3ccccc23)ccc1F)N1CCN(C(=O)C2CC2)CC1 [olaparib] | 5–20 fold |
| C[C@]1(c2nc3c(C(N)=O)cccc3[nH]2)CCCN1 [veliparib] | 5–20 fold |
